Results taken from US5344926A, “Process for producing staurosporine derivatives” (Kyowa Hakko Kogyo Co., Ltd., priority 1992, dated 1994).
Converted amounts (≈) assume the structure as drawn. “And” between values parts separate entries of the source, which are not always exact repeats. Equal entries are not always repeated. Values belong to the compound of their own block, whether it stands above or below them.

Experiments:
[1] = system: HeLa S3 cells; test: Growth Inhibition Test on HeLa S3 Cells; type: cell-based; details: Homo sapiens, 1 h exposure, then 72 h incubation, Neutral Red, read-out: IC50 (cell growth inhibition)
Experimental: Growth Inhibition Test on HeLa S3 Cells
HaLa S3 cells were suspended in an MEM medium containing 10% fetal calf serum and 2 mM glutamine at a concentration of 3×10^4 cells/ml, and 0.1 ml of the cell suspension was put into each well of a 96-well microtiter plate.
After culturing at 37° C. overnight in a carbon dioxide gas incubator, 0.05 ml of a test sample appropriately diluted with the medium was added to each well. The cells were further cultured for one hour in the carbon dioxide gas incubator and the culture supernatant was removed. The residue was washed once with a phosphate buffer saline [PBS(-)] and 0.1 ml of a fresh medium was added to each well, and the cells were further incubated at 37° C. for 72 hours in the carbon dioxide gas incubator. After removal of the supernatant, 0.1 ml of culture medium containing 0.02% Neutral Red was added to each well, and the cells were further incubated at 37° C. for one hour in the carbon dioxide gas incubator to stain the cells. After removal of the culture supernatant, each well was washed once with a physiological saline, and the dye was extracted with 0.001N HCl/30% methanol. Absorbance of the extract at 550 nm was measured with a microplate reader. The cell growth inhibition percentage was calculated according to the following formula from the absorbance of the extract of the cells treated with the test compound in various concentrations and that of intact cells. [formula]
From the cell growth inhibition percentage thus obtained, the concentration of the test compound which inhibits cell growth by 50% (IC50) was determined.

[2] = system: Protein kinase C; test: Protein Kinase C Inhibitory Activity (crude enzyme partially purified from rat brain); details: for selective inhibitory activity on protein kinase C, compared with UCN-01: PKC vs PKA; for IC50 PKC: pH 7.5, 30° C., 3 minutes; for PKA/PKC: ratio of IC50 PKA to IC50 PKC
Experimental: (1) Protein Kinase C Inhibitory Activity
Protein kinase C inhibitory activity (PKC) was measured by the method of Kikkawa, et al. (Journal of Biological Chemistry, 257, 13341 (1982)].
That is, 10 μl of a test solution containing UCN-01, Compound No. 1-α or Compound No. 1-β was added to 250 μl of a solution containing 2.5 μmoles of magnesium acetate, 50 μg of Histone Type IIS (manufactured by Sigma Co., Ltd.), 20 μg of phosphatidyl serine, 0.8 μg of diolein, 25 nmoles of CaCl2, 5 μg of crude enzyme (partically purified from rat brain according to the method of Kikkawa, et al.) and 5 μmoles of Tris-hydrochloride buffer (pH 7.5), followed by incubation at 30° C. for 3 minutes. Then, phosphorylation was initiated by addition of 1.25 nmoles of [γ-^32 p]ATP(5 to 10×10^3 cpm/nmole), followed by incubation at 30° C. for 3 minutes. The reaction was stopped by adding 25% trichloroacetic acid (TCA), and the reaction solution was filtered through a cellulose acetate membrane (pore size of 0.45 μm) (manufactured by Toyo Filter Paper Co., Ltd.). After the membrane was washed four times with 5% TCA, radioactivity remaining on the membrane was measured. As a control, the same procedure as above was repeated without addition of the test solution and radioactivity was likewise measured. A concentration of the test solution showing 50% inhibition as compared with the control was expressed as IC50.

[3] = system: platelets; test: Platelet increasing activity in Balb/c mice; type: in vivo; details: 20 mg/kg i.p. once a day for 5 days; for Number of platelets, individual mouse: 20 mg/kg; for Number of platelets (mean): mean of six mice
Experimental: Platelet increasing activity of Compound (I-1) was examined. Compound No. 1-α obtained in Example 13 was suspended in 0.3% carboxymethylcellulose aqueous solution containing 5% Tween 80. 0.2 ml of the suspension was intraperitoneally administered to six Balb/c mice (male, aged 7 weeks) at a dosage of 20 mg/kg once a day for 5 days. The blood (20 μl) was collected from the ophthalmic […] at the times, just before the test compound administration (Day 0), the 7th day (Day 7), the 14th day (Day 14), the 17th day (Day 17) and the 28th day (Day 28). The number of platelets was counted by a microcellcounter.

[4] = target: T1, Protein kinase A (Bos taurus, UniProt P00517); test: Protein Kinase A Inhibitory Activity (crude enzyme partially purified from calf heart); type: biochemical; details: pH 6.8
T1 construct: partially purified from calf heart; from tissue; host or cells: calf heart, crude enzyme, partially purified
Experimental: (2) Protein Kinase A Inhibitory Activity
Protein kinase A inhibitory activity (PKA) was measured according to the method of Kuo, et al. [Biochemistry, 64, 1349 (1969)].
Subsequent procedures were conducted in a manner similar to the case of measuring protein kinase C inhibitory activity described above to determine IC50.

[5] = Day 0 (just before administration)

IC50 [1]: 2.2 µM
Compound: COC1C(N(C)C(=O)CN2CCOCC2)CC2OC1(C)n1c3ccccc3c3c4c(c5c6ccccc6n2c5c31)C(=O)NC4O (stereo not drawn) [Compound No. 6]

IC50 [1]: 4.6 µM
Compound: COC1C(N(C)CCCC(=O)O)CC2OC1(C)n1c3ccccc3c3c4c(c5c6ccccc6n2c5c31)C(=O)NC4O (stereo not drawn) [Compound No. 3]

IC50 [1]: 1.9 µM
Compound: COC1C(N(C)CC(O)CO)CC2OC1(C)n1c3ccccc3c3c4c(c5c6ccccc6n2c5c31)C(=O)NC4O (stereo not drawn) [Compound No. 2]

IC50 PKC [2]: 2.2 ng/mL (≈ 4.18 nM) | PKA/PKC [2]: 118 | IC50 [4]: 0.494 µM
Compound: COC1C(N(C)CCO)CC2OC1(C)n1c3ccccc3c3c4c(c5c6ccccc6n2c5c31)C(=O)NC4O (stereo not drawn) [Compound No. 1-α]
selective inhibitory activity on protein kinase C, compared with UCN-01 [2]: have a selective inhibitory activity on protein kinase C, compared with UCN-01 | Number of platelets, relative value ([3]; Day 0 (= 100)): 100% | Number of platelets, individual mouse [3, 5]: 81.8 and 89.6 and 75.0 and 89.7 and 97.0 and 86.5 | Number of platelets (mean) [3, 5]: 86.6 | Number of platelets, relative value ([3]; Day 7, relative to Day 0): 156.4% | Number of platelets, individual mouse ([3]; Day 7): 128.3 and 119.2 and 130.1 and 153.8 and 141.0 and 140.1 | Number of platelets (mean) ([3]; Day 7): 135.4 | Number of platelets, relative value ([3]; Day 14, relative to Day 0): 139.8% | Number of platelets, individual mouse ([3]; Day 14): 113.7 and 122.5 and 118.8 and 145.9 and 121.2 and 101.7 | Number of platelets (mean) ([3]; Day 14): 121.1 | Number of platelets, relative value ([3]; Day 17, relative to Day 0): 146.7% | Number of platelets, individual mouse ([3]; Day 17): 115.0 and 113.6 and 111.9 and 159.1 and 137.1 and 125.5 | Number of platelets (mean) ([3]; Day 17): 127.0 | Number of platelets, relative value ([3]; Day 28, relative to Day 0): 135.1% | Number of platelets, individual mouse ([3]; Day 28): 117.3 and 123.5 and 119.0 and 113.7 and 105.8 and 125.3 | Number of platelets (mean) ([3]; Day 28): 117.4

IC50 [1]: 2.2 µM
Compound: COC1C(N(C)CCO)CC2OC1(C)n1c3ccccc3c3c4c(c5c6ccccc6n2c5c31)C(=O)NC4O (stereo not drawn) [Compound No. 1]

IC50 PKC [2]: 19 ng/mL (≈ 36.1 nM) | PKA/PKC [2]: 20 | IC50 [4]: 0.703 µM
Compound: COC1C(N(C)CCO)CC2OC1(C)n1c3ccccc3c3c4c(c5c6ccccc6n2c5c31)C(=O)NC4O (stereo not drawn) [Compound No. 1-β]
selective inhibitory activity on protein kinase C, compared with UCN-01 [2]: have a selective inhibitory activity on protein kinase C, compared with UCN-01

IC50 [1]: 1.5 µM
Compound: COC1C(N(C)C(=O)CN(C)C)CC2OC1(C)n1c3ccccc3c3c4c(c5c6ccccc6n2c5c31)C(=O)NC4O (stereo not drawn) [Compound No. 7]

Compound: CN[C@@H]1C[C@H]2O[C@@](C)([C@@H]1OC)n1c3ccccc3c3c4c(c5c6ccccc6n2c5c31)C(=O)N[C@@H]4O [UCN-01, reference compound]
IC50 PKC [2]: 2 ng/mL (≈ 4.14 nM) | PKA/PKC [2]: 10
